In patent US12528837B2, “Aryl substituted polymyxin derivatives” (priority 2018, dated 2026):
≈ marks a conversion by molar mass, not a printed value. Read-outs that look alike come from different tables or passages of the source. Where a SMILES comes first, the peptide text is derived from it. Bridges are numbered along the chain shown (N, C = ends). [ ]: non-standard residue; d: D form. The star is where a group is joined. X16 = NC[C@H](CC(=O)*)Cc1cccc(Cl)c1; X15 = NC[C@@H](CC(=O)*)c1ccccc1Cl; X11 = NC[C@H](CC(=O)*)c1ccccc1Cl; Dab = NCC[C@H](N)C(=O)O; Dap = NC[C@H](N)C(=O)O

Experiments:
Type in all cases: cell-based
P. aeruginosa CCUG 59347 = tested on: P. aeruginosa CCUG 59347
Procedure: (§1) The inoculum was prepared by making a direct suspension of isolated colonies (selected from an 18-24 hour Mueller-Hinton agar plate) adjusted to the 0.5 McFarland standard. […] The assays were performed in duplicate. […] Several of the compounds were subjected to multiple tests, and where this is the case, the MIC presented is the median value obtained. The MIC values are quoted in μg/mL.

K. pneumoniae CA64 = tested on: K. pneumoniae CA64
Procedure: as §1

E. coli CA58 = tested on: E. coli CA58
Procedure: as §1

K. pneumoniae ATCC 13822 = tested on: K. pneumoniae ATCC 13822
Procedure: (§2) The inoculum was prepared by making a direct suspension of isolated colonies (selected from an 18-24 hour Mueller-Hinton agar plate) adjusted to the 0.5 McFarland standard. […] The assays were performed in duplicate. […] The MIC values are quoted in μg/mL.

A. baumannii NCTC 13424 = tested on: A. baumannii NCTC 13424
Procedure: as §2

P. aeruginosa ATCC 27853 = details: cation-adjusted Mueller-Hinton Broth, 18-20 h, 35° C.
Procedure: as §2

[1] = tested on: A. baumannii ATCC BAA-747
Procedure: as §2

E. coli ATCC 25922 = tested on: E. coli ATCC 25922
Procedure: as §2

[2] = cation-adjusted Mueller-Hinton Broth, 18-20 h, 35° C.

SMILES	MIC P. aeruginosa CCUG 59347 (P. aeruginosa CCUG 59347; [2]) [µg/mL]	MIC K. pneumoniae CA64 (K. pneumoniae CA64; [2]) [µg/mL]	MIC E. coli CA58 (E. coli CA58; [2]) [µg/mL]	MIC K. pneumoniae ATCC 13822 (K. pneumoniae ATCC 13822; [2]) [µg/mL]	MIC A. baumannii NCTC 13424 (A. baumannii NCTC 13424; [2]) [µg/mL]	MIC P. aeruginosa ATCC 27853 (P. aeruginosa ATCC 27853) [µg/mL]	MIC A. baumannii ATCC BAA-747 [1, 2] [µg/mL]	MIC E. coli ATCC 25922 (E. coli ATCC 25922; [2]) [µg/mL]	MIC P. aeruginosa CCUG 59347 (P. aeruginosa CCUG 59347; CCUG 59347) [µg/mL]	MIC K. pneumoniae CA64 (K. pneumoniae CA64; CA64) [µg/mL]	MIC E. coli CA58 (E. coli CA58; CA58) [µg/mL]	MIC K. pneumoniae ATCC 13822 (K. pneumoniae ATCC 13822; ATCC 13822) [µg/mL]	MIC A. baumannii NCTC 13424 (A. baumannii NCTC 13424; NCTC 13424) [µg/mL]	MIC A. baumannii ATCC BAA-747 ([1]; ATCC BAA-747) [µg/mL]	MIC E. coli ATCC 25922 (E. coli ATCC 25922; ATCC 25922) [µg/mL]
CC(C)C[C@@H]1NC(=O)[C@@H](Cc2ccccc2)NC(=O)[C@H](CCN)NC(=O)[C@@H](NC(=O)[C@H](CN)NC(=O)[C@@H](NC(=O)C[C@H](CN)c2ccccc2Cl)[C@@H](C)O)CCNC(=O)[C@H]([C@@H](C)O)NC(=O)[C@H](CCN)NC(=O)[C@H](CCN)NC1=O [Example 3, (S)-4-amino-3-(2- chlorophenyl)butanoyl- Thr-Dap-Cyclo[Dab- Dab-DPhe-Leu-Dab- Dab-Thr]] (X15-T[Dap][Dab][Dab][dF]L[Dab][Dab]T; lactam 3-C)	0.5 (≈ 0.437 µM)	65 (≈ 56.8 µM)	32 (≈ 28 µM)	0.5 (≈ 0.437 µM)	1 (≈ 0.874 µM)	0.5 (≈ 0.437 µM)	2 (≈ 1.75 µM)	1 (≈ 0.874 µM)							
CC(C)C[C@@H]1NC(=O)[C@@H](Cc2ccccc2)NC(=O)[C@H](CCN)NC(=O)[C@@H](NC(=O)[C@H](CN)NC(=O)[C@@H](NC(=O)C[C@@H](CN)c2ccccc2Cl)[C@@H](C)O)CCNC(=O)[C@H]([C@@H](C)O)NC(=O)[C@H](CCN)NC(=O)[C@H](CCN)NC1=O [Example 4, (R)-4-amino-3-(2- chlorophenyl)butanoyl- Thr-Dap-Cyclo[Dab- Dab-DPhe-Leu-Dab- Dab-Thr]] (X11-T[Dap][Dab][Dab][dF]L[Dab][Dab]T; lactam 3-C)	0.5 (≈ 0.437 µM)	16 (≈ 14 µM)	16 (≈ 14 µM)	0.25 (≈ 0.218 µM)	1 (≈ 0.874 µM)	0.25 (≈ 0.218 µM)	1 (≈ 0.874 µM)	0.5 (≈ 0.437 µM)							
CC(C)C[C@@H]1NC(=O)[C@@H](Cc2ccccc2)NC(=O)[C@H](CCN)NC(=O)[C@@H](NC(=O)[C@H](CN)NC(=O)[C@@H](NC(=O)C[C@@H](CN)Cc2cccc(Cl)c2)[C@@H](C)O)CCNC(=O)[C@H]([C@@H](C)O)NC(=O)[C@H](CCN)NC(=O)[C@H](CCN)NC1=O [Example 12, (S)-4-amino-3-(3- chlorobenzyl)butanoyl- Thr-Dap-Cyclo[Dab- Dab-DPhe-Leu-Dab- Dab-Thr]. Isomer 2] (X16-T[Dap][Dab][Dab][dF]L[Dab][Dab]T; lactam 3-C)									0.5 (≈ 0.431 µM)	8 (≈ 6.9 µM)	4 (≈ 3.45 µM)	0.5 (≈ 0.431 µM)	0.25 (≈ 0.216 µM)	0.25 (≈ 0.216 µM)	0.5 (≈ 0.431 µM)
